Source: ChEMBL document CHEMBL3826931, “Salinomycin Hydroxamic Acids: Synthesis, Structure, and Biological Activity of Polyether Ionophore Hybrids” (ACS Med Chem Lett, 2016)
Active and inactive are the calls of the source. No cut-off for these calls is given here.

Experiments:
JIMT-1 [1] = experiment: Reduction in aldehyde dehydrogenase levels in human JIMT1 cells at 5 to 10 uM by ALDEFLUOR assay; type: functional, cell-based
MCF7 = experiment: Cytotoxicity against human MCF7 cells after 72 hrs by MTT assay; type: functional, cell-based; details: MCF7, 72 h
[2] = Cytotoxicity against human JIMT1 cells after 72 hrs by MTT assay; type: functional, cell-based; details: JIMT-1, 72 h
[3] = Ionophoric activity in large unilamellar POPC/POPG (3:1) vesicles assessed as relaxation of potassium coupled-proton gradient by measuring decrease in internal pH at 100 pM after 300 secs by ratiometric pH reporter pyranin based spectroscopic analysis; type: ADME; details: 5 min, 0.0001 µM
[4] = Ionophoric activity in large unilamellar POPC/POPG (3:1) vesicles assessed as relaxation of potassium coupled-proton gradient by measuring decrease in internal pH at 1 pM after 300 secs by ratiometric pH reporter pyranin based spectroscopic analysis; type: ADME; details: 5 min
JIMT-1 [5] = experiment: Reduction in aldehyde dehydrogenase levels in human JIMT1 cells at 0.52 uM by ALDEFLUOR assay (reference value: 30 to 60%); type: functional; set-up: scale not given: the % may be the effect or the level left

Row | SMILES | Activity (JIMT-1 [1]) | IC50 (MCF7) [µM] | IC50 [2] [µM] | Activity [3] | Activity [4] | Activity (JIMT-1 [5]) [%]
1 | CC[C@@H](C(=O)[C@@H](C)[C@@H](O)[C@H](C)[C@@H]1O[C@@H]([C@@H](CC)C(=O)N(C)O)CC[C@@H]1C)[C@H]1O[C@]2(C=C[C@@H](O)[C@]3(CC[C@@](C)([C@H]4CC[C@](O)(CC)[C@H](C)O4)O3)O2)[C@H](C)C[C@@H]1C | inactive | > 20 | > 20 | – | – | –
2 | CC[C@@H](C(=O)[C@@H](C)[C@@H](O)[C@H](C)[C@@H]1O[C@@H]([C@@H](CC)C(=O)NO)CC[C@@H]1C)[C@H]1O[C@]2(C=C[C@@H](O)[C@]3(CC[C@@](C)([C@H]4CC[C@](O)(CC)[C@H](C)O4)O3)O2)[C@H](C)C[C@@H]1C | inactive | 10 | 6.7 | Active | – | –
3 | CC[C@@H](C(=O)[C@@H](C)[C@@H](O)[C@H](C)[C@@H]1O[C@@H]([C@@H](CC)C(=O)NOC)CC[C@@H]1C)[C@H]1O[C@]2(C=C[C@@H](O)[C@]3(CC[C@@](C)([C@H]4CC[C@](O)(CC)[C@H](C)O4)O3)O2)[C@H](C)C[C@@H]1C | inactive | 16.3 | 17.3 | – | – | –
4 | CC[C@@H](C(=O)[C@@H](C)[C@@H](O)[C@H](C)[C@@H]1O[C@@H]([C@@H](CC)C(=O)O)CC[C@@H]1C)[C@H]1O[C@]2(C=C[C@@H](O)[C@]3(CC[C@@](C)([C@H]4CC[C@](O)(CC)[C@H](C)O4)O3)O2)[C@H](C)C[C@@H]1C [SALINOMYCIN] | – | 0.59 | 0.52 | – | Active | 60
5 | CC[C@@H](C(=O)[C@@H](C)[C@@H](O)[C@H](C)[C@@H]1O[C@@H]([C@@H](CC)C(=O)N(C)OC)CC[C@@H]1C)[C@H]1O[C@]2(C=C[C@@H](O)[C@]3(CC[C@@](C)([C@H]4CC[C@](O)(CC)[C@H](C)O4)O3)O2)[C@H](C)C[C@@H]1C | inactive | 9.3 | 10.1 | – | – | –
